Assay results as given in patent publication US20240156982A1, “METHOD OF FORMING PEPTIDE-COATED NANOPARTICLES” (Research Foundation of the City University of New York, priority 2022, published 2024).

How the values were obtained:
HUVEC = experiment: MTT viability assay; format: cell-based, human
Description: (§1) FIG. 8 depicts a series of graphs showing in vitro viability with RGDFFF (SEQ ID NO: 1)-CA4 NP. Each column represents the mean and standard deviation of N=3 and p<0.005 (HUVEC, OVCAR-3), p<0.04 (TOV-21G, OV-90), p<0.03 (CP70), p<0.02 (A2780), p<0.01 (ES-2), p<0.12 (SKOV-3).
(§2) The biological activity of RGDFFF (SEQ ID NO: 1)-CA4 NPs in cell culture was also evaluated. As determined by HPLC, the CA4 drug payload in the NP was 0.2 wt. %. First, IC50 values were established for the NPs in all cells and subsequently performed MTT viability assays in HUVEC and OvCA cells using the respective IC50 values. The RGDFFF-CA4 NPs were compared to cells only without treatment, free CA4, and empty RGDFFF (SEQ ID NO: 1)-NPs without CA4, as shown in FIG. 8. […] Optical microscopy was used to examine the morphological changes in the cells after incubation with RGDFFF (SEQ ID NO: 1)-CA4 NP. This was done since CA4 is a microtubule depolymerizing agent that disrupts internal cell architecture.

A2780 = experiment: MTT viability assay; format: cell-based
Description: as §1, §2

CP70 = experiment: MTT viability assay; format: cell-based
Description: as §1, §2

ES-2 = experiment: MTT viability assay; format: cell-based
Description: as §1, §2

OV-90 = experiment: MTT viability assay; format: cell-based
Description: as §1, §2

OVCAR-3 = experiment: MTT viability assay; format: cell-based
Description: as §1, §2

SKOV-3 = experiment: MTT viability assay; format: cell-based
Description: as §1, §2

TOV-21G = experiment: MTT viability assay; format: cell-based
Description: as §1, §2

[1] = cited from earlier work

COc1ccc(/C=C\c2cc(OC)c(OC)c(OC)c2)cc1O [CA4, combretastatin A4]
IC50 (HUVEC): 2 nM
IC50 (A2780): 5 nM
IC50 (CP70): 4 nM
IC50 (ES-2): 5 nM
IC50 (OV-90): 100 nM
IC50 (OVCAR-3): 2.5 nM
IC50 (SKOV-3): 10 nM
IC50 (TOV-21G): 25 nM
solubility in water [1]: not soluble in water
